We go through three molecules from patent US20180200261A1, “METHODS AND MATERIALS FOR TREATING CANCER” (Mayo Foundation for Medical Education and Research, priority 2015, published 2018).

Experiment [1] relates to HeLa cells. The experiment can be described thus: Immunofluorescence of ionizing radiation induced foci (IRIF). To be noted: 250 nM JQ1, irradiated. The experiment is classed as cell-based. On the procedure: FIGS. 1A-B. BET inhibitor affects DNA repair efficiency. (A and B) HeLa cells treated with (JQ1) or without (CK) 250 nM JQ1 were irradiated (2 Gy) and probed with the indicated antibodies at different time points.
To visualize ionizing radiation induced foci (IRIF), cells were cultured on coverslips and treated with 5 Gy ionizing radiation (IR) followed by recovery as indicated. Cells were then washed in PBS, incubated in 3% paraformaldehyde for 15 minutes, and permeabilized in 0.5% Triton solution for 5 minutes at room temperature. Samples were blocked with 5% goat serum and then incubated with primary antibodies for 30 minutes. Samples were washed three times and incubated with secondary antibodies for 30 minutes. Cells were then stained with DAPI to visualize nuclear DNA. The coverslips were mounted onto glass slides with anti-fade solution and visualized using a Nikon eclipse 80i fluorescence microscope. The following antibodies were used in immunofluorescence: rH2Ax (Millipore) and Rad51 (GeneTex).
To check the effect of BET inhibitor in the DNA repair pathway, the foci of rH2Ax and RAD51 were examined (FIG. 1). rH2Ax is the marker of damaged DNA. RAD51 is an enzyme involved in homology recombination. Both proteins can form foci at damaged DNA sites.

Experiment [2] concerns OVCAR10 cells. Description: PARP inhibitor sensitivity assay (colony formation), OVCAR10. The experiment is classed as cell-based. Conditions: OVCAR10, JQ1 100 nM, OTX015 100 nM, i-BET-762 250 nM together with AZD2281 0-10 μM, 1 to 2 weeks, clones counted. On the procedure: FIG. 3. […] OVCAR10 cells were plated in 6 well plates at a density of 500 cells/well. JQ1 (100 nM), OTX015 (100 nM), and i-BET-762 (250 nM) were added together with different concentrations of AZD2281 (0, 0.1, 1, or 10 μM). […] The cells were cultured for 1 to 2 weeks until clones were visible for counting.
Cells were plated in 6 well plates with at a density of 500 cells/well. BET inhibitors were added together with different concentrations of AZD2281 (0, 0.1, 1, or 10 μM), and the cells were cultured for 1 to 2 weeks until the colonies were visible for counting.

With `Cc1sc2c(c1C)C(c1ccc(Cl)cc1)=N[C@@H](CC(=O)OC(C)(C)C)c1nnc(C)n1-2` [JQ1, (S)-tert-butyl 2-(4-(4-chlorophenyl)-2,3,9-trimethyl-6H-thieno[3,2-f][1,2,4]triazolo[4,3-a][1,4]diazepin-6-yl)acetate], the “rH2Ax foci (rH2Ax positive cells) after IR” value in experiment [1] (24 hours after IR) is listed as “sustained at high levels”. Also, the “RAD51 foci after IR” value in experiment [1] (different time points) was “affected RAD51 in a similar manner”. In addition, the “cell sensitivity to PARP inhibitor” value in experiment [2] is “affect cell sensitivity to PARP inhibitor”. For the molecule `Cc1sc2c(c1C)C(c1ccc(Cl)cc1)=N[C@@H](CC(=O)Nc1ccc(O)cc1)c1nnc(C)n1-2` [OTX015, (6S)-4-(4-chlorophenyl)-N-(4-hydroxyphenyl)-2,3,9-trimethyl-6H-thieno[3,2-f][1,2,4]triazolo[4,3-a][1,4]diazepine-6-acetamide], the “cell sensitivity to PARP inhibitor” value in experiment [2] is “affect cell sensitivity to PARP inhibitor”. Consider `CCNC(=O)C[C@@H]1N=C(c2ccc(Cl)cc2)c2cc(OC)ccc2-n2c(C)nnc21` [i-BET-762, (S)-2-(6-(4-chlorophenyl)-8-methoxy-1-methyl-4H-benzo[f][1,2,4]triazolo[4,3-a][1,4]diazepin-4-yl)-N-ethylacetamide], for which the “cell sensitivity to PARP inhibitor” value in experiment [2] is given as “affect cell sensitivity to PARP inhibitor”.
